What was measured:
JNK 2 = JNK 2 (Homo sapiens, UniProt P45984); assay: Kinase Selectivity Assay (CEREP, HTRF); assay type: biochemical; details: read-out: % Inhibition at 10 μM Concentration, JNK 2
Experimental: kinase, ROCK2, RSK2, Src kinase, Syk, and TRKA. The % Inhibition was determined

KDR = target: T1, KDR (Homo sapiens, UniProt P35968); assay: Millipore kinase assay, radiolabelled phosphopeptide filter binding, IC50 estimate; assay type: biochemical; details: estimated from inhibition at three compound concentrations; ATP at the Km
T1 construct: purchased Millipore (assay service)
T1 sequence (P35968 20-1356): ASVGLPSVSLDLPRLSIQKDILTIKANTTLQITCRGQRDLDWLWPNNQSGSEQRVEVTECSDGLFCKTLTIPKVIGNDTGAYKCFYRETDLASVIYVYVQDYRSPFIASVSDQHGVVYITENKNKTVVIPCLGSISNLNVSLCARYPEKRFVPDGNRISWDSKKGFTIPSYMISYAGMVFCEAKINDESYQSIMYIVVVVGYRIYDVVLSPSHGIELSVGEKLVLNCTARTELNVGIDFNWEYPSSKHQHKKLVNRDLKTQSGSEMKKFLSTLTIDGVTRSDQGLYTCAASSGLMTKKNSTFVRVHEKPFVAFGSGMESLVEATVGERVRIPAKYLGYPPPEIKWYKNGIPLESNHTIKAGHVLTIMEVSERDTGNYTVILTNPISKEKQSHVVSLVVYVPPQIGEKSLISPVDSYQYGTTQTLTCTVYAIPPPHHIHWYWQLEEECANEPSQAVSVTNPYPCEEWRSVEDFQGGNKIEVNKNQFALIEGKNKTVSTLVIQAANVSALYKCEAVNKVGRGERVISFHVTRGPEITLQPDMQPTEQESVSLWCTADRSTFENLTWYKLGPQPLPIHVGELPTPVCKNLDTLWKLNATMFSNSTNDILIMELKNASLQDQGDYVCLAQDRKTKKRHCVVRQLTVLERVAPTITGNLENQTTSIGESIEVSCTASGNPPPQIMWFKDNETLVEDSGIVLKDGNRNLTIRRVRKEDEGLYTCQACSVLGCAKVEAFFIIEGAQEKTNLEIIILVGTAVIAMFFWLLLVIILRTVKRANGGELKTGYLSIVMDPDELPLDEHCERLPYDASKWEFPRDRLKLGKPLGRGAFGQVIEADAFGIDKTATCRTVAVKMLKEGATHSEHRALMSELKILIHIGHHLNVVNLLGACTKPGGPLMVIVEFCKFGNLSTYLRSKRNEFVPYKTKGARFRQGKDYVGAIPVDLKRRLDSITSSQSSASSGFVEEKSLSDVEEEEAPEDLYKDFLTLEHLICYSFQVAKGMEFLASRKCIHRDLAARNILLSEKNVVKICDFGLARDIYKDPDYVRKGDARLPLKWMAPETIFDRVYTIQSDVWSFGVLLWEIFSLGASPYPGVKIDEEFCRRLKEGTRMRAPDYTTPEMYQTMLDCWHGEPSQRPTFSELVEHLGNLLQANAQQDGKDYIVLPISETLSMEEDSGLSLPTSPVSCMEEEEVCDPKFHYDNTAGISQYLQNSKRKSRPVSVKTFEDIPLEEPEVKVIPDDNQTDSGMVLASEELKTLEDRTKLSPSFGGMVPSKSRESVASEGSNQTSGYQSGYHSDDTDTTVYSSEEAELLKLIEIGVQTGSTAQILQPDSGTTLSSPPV
Experimental: Kinase assays at Millipore were performed using a radiolabelled phosphopeptide filter binding detection system, in duplicate, at each compound concentration. The ATP substrate concentration in the reactions was at the Km for each enzyme.
To allow for a more direct comparison of compound inhibition, an IC50 value was estimated from the inhibition determined at three compound concentrations. Several assumptions were made to allow this calculation using a 4 parameter non linear curve fit model, including full inhibition set at 100%, no inhibition set to 0%, and a curve fit parameter set at 1. The inflection point was reported as the estimated IC50.

JNK 2, sequence (P45984 whole entry): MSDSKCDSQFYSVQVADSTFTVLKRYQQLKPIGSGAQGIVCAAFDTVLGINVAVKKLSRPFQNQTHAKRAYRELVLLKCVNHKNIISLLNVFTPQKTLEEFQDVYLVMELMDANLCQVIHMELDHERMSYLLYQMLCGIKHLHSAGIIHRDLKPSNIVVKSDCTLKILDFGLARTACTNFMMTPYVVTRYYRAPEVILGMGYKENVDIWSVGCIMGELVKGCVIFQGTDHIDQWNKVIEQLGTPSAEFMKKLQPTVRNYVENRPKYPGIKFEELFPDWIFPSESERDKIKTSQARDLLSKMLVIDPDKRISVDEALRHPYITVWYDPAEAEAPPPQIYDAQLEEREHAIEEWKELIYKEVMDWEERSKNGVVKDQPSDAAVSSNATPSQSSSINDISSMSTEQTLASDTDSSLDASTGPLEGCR

Compound | inhibition at 10 µM (JNK 2) | IC50 (KDR)
O=C1Nc2ccccc2/C1=C\c1ccc2cn[nH]c2c1 [Example A5, (E)-3-((1H-indazol-6-yl)methylene)indolin-2-one] | 14% | –
COc1ccc2c(c1)C(=Cc1ccc3c(-c4ccc(N5CCN(C)CC5)nc4)n[nH]c3c1)C(=O)N2 (mixture of isomers) [Example A97, (E and Z)-5-methoxy-3-((3-(6-(4-methylpiperazin-1-yl)pyridin-3-yl)-1H-indazol-6-yl)methylene)indolin-2-one] | 14% | < 5 µM
O=C1Nc2ccccc2/C1=C\c1ccc2[nH]nnc2c1 [Example A1, (E)-3-((1H-benzo[d][1,2,3]triazol-5-yl)methylene)indolin-2-one] | 13% | –
O=C1Nc2ccccc2C1=Cc1ccc2c(/C=C/c3ccccn3)n[nH]c2c1 (mixture of isomers) [Example A41, (E and Z)-3-((3-((E)-2-(pyridin-2-yl)vinyl)-1H-indazol-6-yl)methylene)indolin-2-one] | 52% | < 5 µM
O=C1Nc2ccccc2/C1=C\c1ccc2c(/C=C/c3ccccc3Cl)n[nH]c2c1 [Example A60, (E)-3-((3-((E)-2-chlorostyryl)-1H-indazol-6-yl)methylene)indolin-2-one] | 3% | –

Reference: patent US8765748B2, “Indazolyl, benzimidazolyl, benzotriazolyl substituted indolinone derivatives as kinase inhibitors useful in the treatment of cancer” (University Health Network, priority 2007, dated 2014)
